Data from patent US20200024278A1, “COMPOSITION COMPRISING ANTIBIOTIC COMPOUND AND AN HETEROCYCLIC COMPOUND AND THEIR USE IN PREVENTING OR TREATING BACTERIAL INFECTIONS” (MUTABILIS, priority 2016, published 2020).
Where two headings read alike, the source gives them in different places.

Columns and labels:
Experiment in all cases: MIC, broth microdilution (CLSI), substance alone or ATB combined with compound at 4 or 8 μg/mL
ECO 190317 = format: cell-based, E. coli; details: ECO 190317; for MIC: Escherichia coli
How it was run: (§1)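 Growth inhibition endpoint, read visually after 16-20 h at 35° C in ambient air. Cation-adjusted Mueller-Hinton broth, inoculum 5·10^5 CFU/mL, CLSI M7-A7 protocol.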

ECO UFR39 = format: cell-based, E. coli; details: ECO UFR39; for MIC: Escherichia coli
How it was run: as §1

KPN 6299 = format: cell-based, K. pneumoniae; details: for MIC: Klebsiella pneumoniae
How it was run: as §1

KPN BAA-1898 = format: cell-based, K. pneumoniae; details: KPN BAA-1898; for MIC: Klebsiella pneumoniae, BAA1898
How it was run: as §1

KPN UFR42 = format: cell-based, K. pneumoniae; details: KPN UFR42
How it was run: as §1

ECL P99 = format: cell-based, E. cloacae; details: ECL P99; with Example 1 @8 μg/ml
How it was run: as §1

[1] = antibiotic alone, read-out: MIC ATB alone

Structure (SMILES): CC1(C)S[C@@H]2[C@H](NC(=O)[C@H](N)c3ccc(O)cc3)C(=O)N2[C@H]1C(=O)O [AMX, Amoxicillin, reference compound]
- MIC ATB combined with Example 1 @8 μg/ml (ECO 190317; with Example 1 @8 μg/ml): <0.031 µg/mL
- MIC ATB combined with Example 1 @8 μg/ml (ECO 190317; with Example 1 at 8 μg/ml): <0.031 µg/mL
- MIC ATB combined with Example 7 @8 μgml (ECO 190317; with Example 7 at 8 μg/ml): <0.031 µg/mL
- MIC ATB combined with Example 9 @4 μg/ml (ECO 190317; with Example 9 @4 μg/ml): <0.031 µg/mL
- MIC ATB combined with Example 9 @4 μg/ml (ECO 190317; with Example 9 at 4 μg/ml): <0.031 µg/mL
- MIC ATB combined with Example 11 @8 μg/ml (ECO 190317; with Example 11 at 8 μg/ml): <0.031 µg/mL
- MIC ATB combined with Example 12 @8 μg/ml (ECO 190317; with Example 12 at 8 μg/ml): <0.031 µg/mL
- MIC ATB combined with Example 13 @8 μg/ml (ECO 190317; with Example 13 at 8 μg/ml): <0.031 µg/mL
- MIC ATB combined with Example 14 @8 μg/ml (ECO 190317; with Example 14 at 8 μg/ml): <0.031 µg/mL
- MIC ATB combined with Example 15 @4 μgml (ECO 190317; with Example 15 at 4 μg/ml): <0.031 µg/mL
- MIC ATB combined with Example 16 @4 μg/ml (ECO 190317; with Example 16 at 4 μg/ml): <0.031 µg/mL
- MIC (ECO 190317; [1]): > 1020 µg/mL
- MIC (ECO 190317; substance alone, read-out: MIC): > 1020 µg/mL
- MIC ATB combined with Example 1 @8 μg/ml (ECO UFR39; with Example 1 @8 μg/ml): <0.031 µg/mL
- MIC ATB combined with Example 1 @8 μg/ml (ECO UFR39; with Example 1 at 8 μg/ml): <0.031 µg/mL
- MIC ATB combined with Example 7 @8 μgml (ECO UFR39; with Example 7 at 8 μg/ml): <0.031 µg/mL
- MIC ATB combined with Example 9 @4 μg/ml (ECO UFR39; with Example 9 @4 μg/ml): <0.031 µg/mL
- MIC ATB combined with Example 9 @4 μg/ml (ECO UFR39; with Example 9 at 4 μg/ml): <0.031 µg/mL
- MIC ATB combined with Example 11 @8 μg/ml (ECO UFR39; with Example 11 at 8 μg/ml): <0.031 µg/mL
- MIC ATB combined with Example 12 @8 μg/ml (ECO UFR39; with Example 12 at 8 μg/ml): <0.031 µg/mL
- MIC ATB combined with Example 13 @8 μg/ml (ECO UFR39; with Example 13 at 8 μg/ml): <0.031 µg/mL
- MIC ATB combined with Example 14 @8 μg/ml (ECO UFR39; with Example 14 at 8 μg/ml): <0.031 µg/mL
- MIC ATB combined with Example 15 @4 μgml (ECO UFR39; with Example 15 at 4 μg/ml): <0.031 µg/mL
- MIC ATB combined with Example 16 @4 μg/ml (ECO UFR39; with Example 16 at 4 μg/ml): <0.031 µg/mL
- MIC (ECO UFR39; [1]): > 1020 µg/mL
- MIC (ECO UFR39; substance alone, read-out: MIC): > 1020 µg/mL
- MIC (KPN 6299; [1]): > 1020 µg/mL
- MIC (KPN 6299; substance alone, read-out: MIC): > 1020 µg/mL
- MIC ATB combined with Example 1 @8 μg/ml (KPN 6299; with Example 1 @8 μg/ml): >32 µg/mL
- MIC ATB combined with Example 1 @8 μg/ml (KPN 6299; with Example 1 at 8 μg/ml): >32 µg/mL
- MIC ATB combined with Example 7 @8 μgml (KPN 6299; with Example 7 at 8 μg/ml): 0.5 µg/mL
- MIC ATB combined with Example 9 @4 μg/ml (KPN 6299; with Example 9 @4 μg/ml): <=0.5 μg/mL
- MIC ATB combined with Example 9 @4 μg/ml (KPN 6299; with Example 9 at 4 μg/ml): <0.031 µg/mL
- MIC ATB combined with Example 11 @8 μg/ml (KPN 6299; with Example 11 at 8 μg/ml): <0.031 µg/mL
- MIC ATB combined with Example 12 @8 μg/ml (KPN 6299; with Example 12 at 8 μg/ml): <0.031 µg/mL
- MIC ATB combined with Example 13 @8 μg/ml (KPN 6299; with Example 13 at 8 μg/ml): 2 µg/mL
- MIC ATB combined with Example 14 @8 μg/ml (KPN 6299; with Example 14 at 8 μg/ml): <0.031 µg/mL
- MIC ATB combined with Example 15 @4 μgml (KPN 6299; with Example 15 at 4 μg/ml): <0.031 µg/mL
- MIC ATB combined with Example 16 @4 μg/ml (KPN 6299; with Example 16 at 4 μg/ml): <0.031 µg/mL
- MIC ATB combined with Example 1 @8 μg/ml (KPN BAA-1898; with Example 1 @8 μg/ml): >32 µg/mL
- MIC ATB combined with Example 1 @8 μg/ml (KPN BAA-1898; with Example 1 at 8 μg/ml): >32 µg/mL
- MIC ATB combined with Example 7 @8 μgml (KPN BAA-1898; with Example 7 at 8 μg/ml): >32 µg/mL
- MIC ATB combined with Example 9 @4 μg/ml (KPN BAA-1898; with Example 9 @4 μg/ml): <0.031 µg/mL
- MIC ATB combined with Example 9 @4 μg/ml (KPN BAA-1898; with Example 9 at 4 μg/ml): <0.031 µg/mL
- MIC ATB combined with Example 11 @8 μg/ml (KPN BAA-1898; with Example 11 at 8 μg/ml): <0.031 µg/mL
- MIC ATB combined with Example 12 @8 μg/ml (KPN BAA-1898; with Example 12 at 8 μg/ml): <0.031 µg/mL
- MIC ATB combined with Example 13 @8 μg/ml (KPN BAA-1898; with Example 13 at 8 μg/ml): >32 µg/mL
- MIC ATB combined with Example 14 @8 μg/ml (KPN BAA-1898; with Example 14 at 8 μg/ml): <0.031 µg/mL
- MIC ATB combined with Example 15 @4 μgml (KPN BAA-1898; with Example 15 at 4 μg/ml): <0.031 µg/mL
- MIC ATB combined with Example 16 @4 μg/ml (KPN BAA-1898; with Example 16 at 4 μg/ml): <0.031 µg/mL
- MIC (KPN BAA-1898; [1]): > 1020 µg/mL
- MIC (KPN BAA-1898; substance alone, read-out: MIC): > 1020 µg/mL
- MIC ATB combined with Example 1 @8 μg/ml (KPN UFR42; with Example 1 @8 μg/ml): >32 µg/mL
- MIC ATB combined with Example 1 @8 μg/ml (KPN UFR42; with Example 1 at 8 μg/ml): >32 µg/mL
- MIC ATB combined with Example 7 @8 μgml (KPN UFR42; with Example 7 at 8 μg/ml): >32 µg/mL
- MIC ATB combined with Example 9 @4 μg/ml (KPN UFR42; with Example 9 @4 μg/ml): >32 µg/mL
- MIC ATB combined with Example 9 @4 μg/ml (KPN UFR42; with Example 9 at 4 μg/ml): >32 µg/mL
- MIC ATB combined with Example 11 @8 μg/ml (KPN UFR42; with Example 11 at 8 μg/ml): <0.031 µg/mL
- MIC ATB combined with Example 12 @8 μg/ml (KPN UFR42; with Example 12 at 8 μg/ml): <0.031 µg/mL
- MIC ATB combined with Example 13 @8 μg/ml (KPN UFR42; with Example 13 at 8 μg/ml): >32 µg/mL
- MIC ATB combined with Example 14 @8 μg/ml (KPN UFR42; with Example 14 at 8 μg/ml): <0.031 µg/mL
- MIC ATB combined with Example 15 @4 μgml (KPN UFR42; with Example 15 at 4 μg/ml): <0.031 µg/mL
- MIC ATB combined with Example 16 @4 μg/ml (KPN UFR42; with Example 16 at 4 μg/ml): <0.031 µg/mL
- MIC (KPN UFR42; Klebsiella pneumoniae, antibiotic alone, read-out: MIC ATB alone): > 256 µg/mL
- MIC ATB combined with Example 1 @8 μg/ml (ECL P99): <0.031 µg/mL
